Source: patent US20240368174A1, “Antiviral Heterocyclic Compounds” (Enanta Pharmaceuticals, Inc., priority 2023, published 2024)

tested on: HMPV clinical isolate A2 strain TN 94-49; experiment: HMPV antiviral assay, Method 1 (LLC-MK2 cells, ATP-Lite); format: cell-based; settings: human metapneumovirus, hMPV A2 TN/94-49, LLC-MK2 cells
Procedure, shortened: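 EC50 derived by four-parameter logistic fit of percent cell health, measured as ATP-Lite luminescence after 7 days at 37° C, 5% CO2. Compounds tested as 10-point 2.5-fold dilutions starting at 2 μM against TN 94-49 virus (MOI 0.005) in LLC-MK2 cells seeded at 5,000/well, infection medium containing 2 μg/mL TPCK-trypsin, serum-free.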

Row | Structure (SMILES) | EC50
1 | COc1cc(C(=O)NC[C@](O)(c2cc3c(c(-c4cc(Cl)c(F)cc4F)n2)OC[C@]3(C)C(N)=O)c2nccs2)cc2cn(C3CC3)nc12 [Example 475] | < 500 nM
2 | COc1cc(C(=O)NC[C@@](O)(c2ccccc2)c2cc3c(c(-c4cccc(Cl)c4Cl)n2)OC[C@]3(C)C(N)=O)cc2cn(C3CC3)nc12 [Example 260] | < 500 nM
3 | [2H]C([2H])([2H])c1nc2ccc(C(=O)NC[C@@](O)(c3cccc(F)c3)c3cc4c(c(-c5ccc6c(c5Cl)OC(F)(F)O6)n3)OC[C@]4(C)C(N)=O)cc2o1 [Example 282] | < 500 nM
4 | COc1cc(C(=O)NC[C@@](O)(c2ccccc2)c2cc3c(c(-c4ccc(F)c(Cl)c4Cl)n2)OC[C@]3(C)C(N)=O)cc2cn(C3(F)CC3)nc12 [Example 259] | < 500 nM
5 | COc1cc(C(=O)NC[C@@](O)(c2cccc(F)c2)c2cc3c(c(-c4ccc(F)c(Cl)c4Cl)n2)OC[C@]3(C)C(N)=O)cc2cn(C3(F)CC3)nc12 [Example 269] | < 500 nM
6 | Cc1nc2c(OC3CC3)cc(C(=O)NC[C@@](O)(c3ccccc3)c3cc4c(c(-c5ccc(F)c(Cl)c5Cl)n3)OC[C@]4(C)C(N)=O)cc2o1 [Example 271] | < 500 nM
7 | COc1cc(C(=O)NC[C@@](O)(c2ccccc2)c2cc3c(c(-c4cc(Cl)c(F)cc4F)n2)OC[C@]3(C)C(N)=O)cc2cc(C3CC3)nnc12 [Example 90] | < 500 nM
8 | COc1cc(C(=O)NC[C@](O)(c2cc3c(c(-c4ccc(F)c(C)c4Cl)n2)OC[C@]3(C)C(N)=O)C2CC2)cc2cn(C3CC3)nc12 [Example 69] | < 500 nM
9 | C[C@]1(C(N)=O)COc2c1cc([C@@](O)(CNC(=O)c1ccc3nc(C4CC4)oc3c1)c1ccccc1)nc2-c1cc(Cl)c(F)cc1F [Example 88] | < 500 nM
10 | COc1cc(C(=O)NC[C@@](O)(c2ccccc2)c2cc3c(c(-c4cc(Cl)c(F)cc4F)n2)OC[C@]3(C)C(N)=O)cc2cc(C(F)F)nnc12 [Example 186] | > 500 nM
11 | COc1cc(C(=O)NC[C@@](O)(c2cccc(F)c2)c2cc3c(c(-c4ccc5c(c4Cl)OC(F)(F)O5)n2)OC[C@]3(C)C(N)=O)cc2cn(C3(F)CC3)nc12 [Example 275] | < 500 nM
12 | COc1cc(C(=O)NC[C@@](O)(c2ccccc2)c2cc3c(c(-c4cc(Cl)ccc4F)n2)OC[C@]3(C)C(N)=O)cc2cn(C(F)F)nc12 [Example 145] | < 500 nM
13 | COc1cc(C(=O)NC[C@@](O)(c2ccccc2)c2cc3c(c(-c4ccc(F)c(F)c4Cl)n2)OC[C@]3(C)C(N)=O)cc2cn(C(F)F)nc12 [Example 213] | < 500 nM
14 | COc1cc(C(=O)NC[C@@](O)(c2cccc(F)c2)c2cc3c(c(-c4ccc(F)c(Cl)c4Cl)n2)OC[C@]3(C)C(N)=O)cc2cn(C(F)F)nc12 [Example 270] | < 500 nM
15 | COc1cc(C(=O)NC[C@@](O)(c2ccc(F)cc2)c2cc3c(c(-c4cc(Cl)c(F)cc4F)n2)OC[C@]3(C)C(N)=O)cc2cn(C3CC3)nc12 [Example 12] | < 500 nM
16 | [2H]C([2H])([2H])c1nc2c(OC)cc(C(=O)NC[C@@](O)(c3ccsc3)c3cc4c(c(-c5cc(Cl)c(F)cc5F)n3)OC[C@]4(C)C(N)=O)cc2s1 [Example 176] | < 500 nM
17 | COc1cc(C(=O)NC[C@](O)(c2cc3c(c(-c4cc(Cl)cc(C)c4F)n2)OC[C@]3(C)C(N)=O)C2CC2)cc2cn(C3CC3)nc12 [Example 47] | > 500 nM
18 | [2H]C([2H])([2H])c1nc2c(OC)cc(C(=O)NC[C@](O)(c3cc4c(c(-c5ccc(F)c(Cl)c5Cl)n3)OC[C@]4(C)C(N)=O)C3CC3)cc2cc1Br [Example 24] | < 500 nM
19 | COc1cc(C(=O)NC[C@](O)(c2cc3c(c(-c4cc(Cl)c(F)cc4F)n2)OC[C@]3(C)C(N)=O)c2ccccc2F)cc2cn(C(F)F)nc12 [Example 138] | < 500 nM
20 | COc1cc(C(=O)NC[C@@](O)(c2ccsc2)c2cc3c(c(-c4cc(F)c(F)cc4F)n2)OC[C@]3(C)C(N)=O)cc2cn(C3CC3)nc12 [Example 177] | < 500 nM
21 | COc1cc(C(=O)NC[C@](O)(c2cc3c(c(-c4cc(F)c(F)cc4F)n2)OC[C@]3(C)C(N)=O)C2(O)CC2)cc2cn(C3CC3)nc12 [Example 215] | > 500 nM
22 | COc1cc(C(=O)NC[C@](O)(c2cc3c(c(-c4cc(C)cc(F)c4F)n2)OC[C@]3(C)C(N)=O)C2CC2)cc2cn(C3CC3)nc12 [Example 49] | > 500 nM
23 | COc1cc(C(=O)NCC(O)(c2csc(Cl)c2)c2cc3c(c(-c4cc(Cl)c(F)cc4F)n2)OC[C@]3(C)C(N)=O)cc2cn(C3CC3)nc12 (some centres unmarked) [Example 471] | < 500 nM

tested on: HMPV clinical isolate A2 strain TN 94-49; experiment: HMPV antiviral assay, Method 2 (LLC-MK2 cells with CP-100-356, ATP-Lite); format: cell-based; settings: human metapneumovirus; hMPV A2 TN/94-49, LLC-MK2 cells with CP-100-356, Method 2
Procedure, shortened: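 EC50 comes from a four-parameter fit of percent cell viability (ATP-Lite, normalized to virus-only and cell-only wells) after 7 days at 37 °C. Infection used HMPV A2 TN 94-49 at MOI 0.16 in LLC-MK2 cells, with 2 μM P-gp inhibitor CP-100-356 and 2 μg/mL TPCK-trypsin final; dose range 200 nM top, 2.5-fold, 10 points, duplicate.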

Row | Structure (SMILES) | EC50
24 | COc1cc(C(=O)NC[C@](O)(c2cc3c(c(-c4cc(Cl)c(F)cc4F)n2)OC[C@]3(C)C(N)=O)c2nccs2)cc2cn(C3CC3)nc12 [Example 475] | < 200 nM
25 | COc1cc(C(=O)NC[C@@](O)(c2ccccc2)c2cc3c(c(-c4cccc(Cl)c4Cl)n2)OC[C@]3(C)C(N)=O)cc2cn(C3CC3)nc12 [Example 260] | < 200 nM
26 | [2H]C([2H])([2H])c1nc2ccc(C(=O)NC[C@@](O)(c3cccc(F)c3)c3cc4c(c(-c5ccc6c(c5Cl)OC(F)(F)O6)n3)OC[C@]4(C)C(N)=O)cc2o1 [Example 282] | < 200 nM
27 | COc1cc(C(=O)NC[C@@](O)(c2ccccc2)c2cc3c(c(-c4ccc(F)c(Cl)c4Cl)n2)OC[C@]3(C)C(N)=O)cc2cn(C3(F)CC3)nc12 [Example 259] | < 200 nM
28 | COc1cc(C(=O)NC[C@@](O)(c2cccc(F)c2)c2cc3c(c(-c4ccc(F)c(Cl)c4Cl)n2)OC[C@]3(C)C(N)=O)cc2cn(C3(F)CC3)nc12 [Example 269] | < 200 nM
29 | Cc1nc2c(OC3CC3)cc(C(=O)NC[C@@](O)(c3ccccc3)c3cc4c(c(-c5ccc(F)c(Cl)c5Cl)n3)OC[C@]4(C)C(N)=O)cc2o1 [Example 271] | < 200 nM
30 | COc1cc(C(=O)NC[C@@](O)(c2ccccc2)c2cc3c(c(-c4cc(Cl)c(F)cc4F)n2)OC[C@]3(C)C(N)=O)cc2cc(C3CC3)nnc12 [Example 90] | < 200 nM
31 | COc1cc(C(=O)NC[C@](O)(c2cc3c(c(-c4ccc(F)c(C)c4Cl)n2)OC[C@]3(C)C(N)=O)C2CC2)cc2cn(C3CC3)nc12 [Example 69] | < 200 nM
32 | C[C@]1(C(N)=O)COc2c1cc([C@@](O)(CNC(=O)c1ccc3nc(C4CC4)oc3c1)c1ccccc1)nc2-c1cc(Cl)c(F)cc1F [Example 88] | < 200 nM
33 | COc1cc(C(=O)NC[C@@](O)(c2ccccc2)c2cc3c(c(-c4cc(Cl)c(F)cc4F)n2)OC[C@]3(C)C(N)=O)cc2cc(C(F)F)nnc12 [Example 186] | < 200 nM
34 | COc1cc(C(=O)NC[C@@](O)(c2cccc(F)c2)c2cc3c(c(-c4ccc5c(c4Cl)OC(F)(F)O5)n2)OC[C@]3(C)C(N)=O)cc2cn(C3(F)CC3)nc12 [Example 275] | < 200 nM
35 | COc1cc(C(=O)NC[C@@](O)(c2ccccc2)c2cc3c(c(-c4cc(Cl)ccc4F)n2)OC[C@]3(C)C(N)=O)cc2cn(C(F)F)nc12 [Example 145] | < 200 nM
36 | COc1cc(C(=O)NC[C@@](O)(c2ccccc2)c2cc3c(c(-c4ccc(F)c(F)c4Cl)n2)OC[C@]3(C)C(N)=O)cc2cn(C(F)F)nc12 [Example 213] | < 200 nM
37 | COc1cc(C(=O)NC[C@@](O)(c2cccc(F)c2)c2cc3c(c(-c4ccc(F)c(Cl)c4Cl)n2)OC[C@]3(C)C(N)=O)cc2cn(C(F)F)nc12 [Example 270] | < 200 nM
38 | COc1cc(C(=O)NC[C@@](O)(c2ccc(F)cc2)c2cc3c(c(-c4cc(Cl)c(F)cc4F)n2)OC[C@]3(C)C(N)=O)cc2cn(C3CC3)nc12 [Example 12] | < 200 nM
